Measured values reported in patent publication US20080312209A1, “Piperazine Heteroaryl Derivatives as Gpr38 Agonists” (Glaxo Group Limited, priority 2005, published 2008).
Structures can show the parent of a compound that is named as a salt.

What was measured:
hGPR38R [1] = target: T1, hGPR38R (Homo sapiens, UniProt O43193); assay: GPR38 FLIPR functional agonist assay; type: cell-based; set-up: expressed in transfected cells; conditions: HEK-293 cells stably expressing the GPR38 receptor, agonist response, Fluo-4 fluorescence
Description: The potencies and efficacies of the compounds of this invention for GPR^38 can be determined by FLIPR assay performed on the human cloned receptor as described herein. It has been found, using the FLIPR functional assay, that compounds of formula (I) appear to be partial or full agonists of the GPR38 receptor.
GPR38FLIPR Functional Agonist Assay Protocol
HEK-293 cells stably expressing the GPR38 receptor were seeded (10,000 cells/well) into poly-D-lysine coated 384-well black-wall, clear-bottom microtitre plates (Becton Dickinson) 24 h prior to assay. On day of assay, cells were washed (×2) with 80 ul of assay buffer (Hanks Balanced Salts Solution (HBSS), 10 mM HEPES, 200 μM Ca^2+, 2.5 mM probenecid) using the EMBLA cell washer. After the final wash, buffer was aspirated to leave a residual volume of 30 ul on the cells. Cells were loaded with 1 μM (final) Fluo-4-AM fluorescent indicator dye (TefLabs) in assay buffer, (20 ul loading solution added to each well using the Multidrop). Plates were incubated for 1 h at 37° C., before being washed (×3) with 80 ul assay buffer using the EMBLA cell washer; 30 ul residual being left after the final wash. Plates were then assayed on a Fluorometric Imaging Plate Reader (FLIPR, Molecular Devices). Test compounds were prepared in assay buffer without probenecid, but containing 0.03% CHAPS. In the FLIPR, 10 ul of test compound was added to the cells and changes in fluorescence measured over a 2 min timeframe. Maximum change in fluorescence over baseline was used to determine agonist response and concentration response curves were constructed, using a 4-parameter logistic equation.
(§1) The following alternative procedure may also be used:
HEK-293 cells stably expressing the GPR38 receptor were seeded (30,000 cells/100 ul growth media/well) into poly-D-lysine coated 96-well black-wall, clear-bottom microtitre plates (Corning) 24 hours prior to assay. On the day of assay the cells were loaded with 2 μM (final) Fluo-4-AM fluorescent indicator dye (Molecular Probes) and 1 mM (final) probenicid in assay buffer (145 mM sodium chloride, 2.5 mM potassium chloride, 10 mM Hepes, 10 mM glucose, 1.2 mM magnesium chloride, 1.5 mM calcium chloride and 0.1% BSA) (50 ul loading solution added to each well). Plates were incubated for 1 hour at 25° C., before being washed 4 times with 100 ul assay buffer using the EMBLA cell washer; 150 ul residual being left after the final wash. The cells were then incubated at 25° C. for 20 minutes and the plates were then assayed on a Fluorometric Imaging Plate Reader (FLIPR, Molecular Devices). Test compounds were prepared in assay buffer without probenecid. In the FLIPR, 50 ul of test compound was added to the cells and changes in fluorescence measured over a 2 minute timeframe. Maximum change in fluorescence over baseline was used to determine agonist response and concentration response curves were constructed, using a 4-parameter logistic equation.
Target sequence in this assay (O43193 whole entry): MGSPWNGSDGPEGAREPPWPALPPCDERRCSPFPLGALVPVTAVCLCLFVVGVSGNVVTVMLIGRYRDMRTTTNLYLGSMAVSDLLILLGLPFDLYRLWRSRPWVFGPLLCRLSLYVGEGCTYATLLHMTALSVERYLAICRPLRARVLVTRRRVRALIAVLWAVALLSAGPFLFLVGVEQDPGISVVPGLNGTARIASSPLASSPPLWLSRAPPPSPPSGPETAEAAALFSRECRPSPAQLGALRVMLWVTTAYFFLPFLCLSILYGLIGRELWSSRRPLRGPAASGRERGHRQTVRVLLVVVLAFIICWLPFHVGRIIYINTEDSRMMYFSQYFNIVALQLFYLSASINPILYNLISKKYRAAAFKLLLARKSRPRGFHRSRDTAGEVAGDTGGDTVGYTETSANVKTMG

hGPR38R [2] = target: T1, hGPR38R; assay: GPR38 GTPγS functional agonist assay; type: biochemical; set-up: expressed in transfected cells; host or cells: HEK293 (transient transfection; P2 membrane fractions)
Description: The potencies and intrinsic activities of the compounds of this invention can also be determined according to the [35S]GTPγS functional assay which is described herein. It has been found, using the [35S]GTPγS functional assay, that compounds of formula (I) appear to be partial or full agonists of the GPR38 receptor.
GPR38GTPγS Functional Agonist Assay Protocol
For each compound being assayed, in an Opti clear bottom 96 well plate, is added:—
(a) 20 μl of test compound (or 10 μl of guanosine 5′-triphosphate (GTP) as non-specific binding control) diluted to required concentration in assay buffer (20 mM N-2-Hydroxyethylpiperazine-N′-2-ethanesulfonic acid (HEPES)+100 mM NaCl+10 mM MgCl2, pH adjusted to 7.4 with NaOH); (b) 60 μl bead/membrane/GDP mix prepared by suspending wheat germ agglutinin-polyvinyltoluene (WGA-PVT) scintillation proximity assay (SPA) beads at 100 mg/ml in assay buffer followed by mixing with membrane (prepared in accordance with the methodology described above) and diluting in assay buffer to give a final volume of 60 μl which contains 10 μg protein and 0.5 mg bead per well—mixture is pre-mixed at 4° C. for 30 min on a roller and just prior to addition to the plate, 10 μM final concentration of guanosine 5′ diphosphate (GDP—diluted in assay buffer) is added; (c) 20 μl guanosine 5′ [γ35-S]thiotriphosphate, triethylamine salt (Amersham; radioactivity concentration=37 kBq/μl or 1 mCi/ml; Specific Activity 1160 Ci/mmol) diluted to 1.9 nM in assay buffer to give 0.38 nM final.
The plate is incubated on a shaker at 25° C. for 30 min followed by centrifugation for 5 min at 1500 rpm. The plate is read between 3 and 6 h after completion of centrifuge run in a Wallac Microbeta counter on a 1 min normalised tritium count protocol. Data is analysed using a 4-parameter logistic equation. Basal activity used as minimum.
as §1
Target sequence in this assay (O43193 whole entry): as above
Target sequence in this assay (P09471 2-354 partner limits assumed): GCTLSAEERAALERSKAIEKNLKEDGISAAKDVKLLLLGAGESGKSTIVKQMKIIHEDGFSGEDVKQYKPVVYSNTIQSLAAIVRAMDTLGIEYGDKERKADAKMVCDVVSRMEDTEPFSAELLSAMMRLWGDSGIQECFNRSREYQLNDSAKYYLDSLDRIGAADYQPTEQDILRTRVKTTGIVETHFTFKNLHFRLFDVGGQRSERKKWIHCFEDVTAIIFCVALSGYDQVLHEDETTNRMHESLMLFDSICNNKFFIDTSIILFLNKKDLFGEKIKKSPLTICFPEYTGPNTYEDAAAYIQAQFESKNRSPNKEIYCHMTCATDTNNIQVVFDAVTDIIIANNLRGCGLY
Target sequence in this assay (P62873 2-340 partner limits assumed): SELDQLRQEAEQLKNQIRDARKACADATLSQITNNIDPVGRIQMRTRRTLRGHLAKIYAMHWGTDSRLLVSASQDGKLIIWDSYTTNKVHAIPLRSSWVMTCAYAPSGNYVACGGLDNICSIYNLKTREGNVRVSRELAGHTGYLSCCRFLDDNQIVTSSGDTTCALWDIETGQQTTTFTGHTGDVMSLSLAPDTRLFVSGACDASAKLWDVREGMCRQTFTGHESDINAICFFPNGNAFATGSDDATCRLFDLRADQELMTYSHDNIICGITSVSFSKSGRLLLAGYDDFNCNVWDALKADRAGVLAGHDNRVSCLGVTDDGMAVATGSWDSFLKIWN
Target sequence in this assay (P59768 2-68 partner limits assumed): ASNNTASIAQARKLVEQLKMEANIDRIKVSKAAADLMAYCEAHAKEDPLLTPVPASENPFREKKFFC
Membranes are derived from bulk cell cultures of HEK293 cell lines transiently transfected with hGPR38R and Go G-protein. P2 membranes fractions are prepared, aliquoted and stored at −80° C.
For each compound being assayed, the following is added into a white Greiner 384 well plate:—
(a) 1 μl of test compound diluted to required concentration in DMSO. (b) 20 μl bead/membrane/Saponin/GDP mix prepared as follows;—suspension of LEADseeker wheat germ agglutinin (WGA) scintillation proximity assay (SPA) beads at 25 mg/ml in assay buffer (20 mM N-2-Hydroxyethylpiperazine-N′-2-ethanesulfonic acid (HEPES)+100 mM NaCl+10 mM MgCl2, pH adjusted to 7.4 with KOH) containing saponin at 150 ug/ml. Mixing of bead suspension with membranes at 500 ug/ml (prepared in accordance with the methodology described above) and diluting in assay buffer to give a final volume of 20 μl which contains 5 μg protein and 0.25 mg bead per well.
Mixture is pre-mixed for 30 minutes on a roller and just prior to addition to the plate, 3 μM final assay concentration of guanosine 5′ diphosphate (GDP) (diluted in assay buffer) is added.
(c) 25 μl guanosine 5′ [γ35-S]thiotriphosphate, triethylamine salt (Amersham; radioactivity concentration=37 kBq/μl or 1 mCi/ml; Specific Activity 1160 Ci/mmol) diluted to 0.6 nM in assay buffer to give 0.33 nM final assay concentration.
The plate is then spun for 2 minutes at 1500 rpm and then incubated at room temperature for 4 hours. The plate is then read on a Viewlux Plux (Perkin Elmer). Data is analysed using a 4-parameter logistic equation.

[3] = read-out: pEC50 in the FLIPR assay (converted)
[4] = [35S]GTPγS SPA, HEK293 membranes with hGPR38R and Go G-protein, read-out: pEC50 in the GTPγS assay (converted)

Row | Compound | EC50 (hGPR38R [1]; [3]) | EC50 (hGPR38R [2]; [4]) | EC50 (hGPR38R [1]; pEC50 in the FLIPR assay) | EC50 (hGPR38R [2])
1 | COc1cc(NC2CCN(C(=O)c3ncccc3-c3ccc(CN4C[C@@H](C)N[C@@H](C)C4)c(F)c3)CC2)ccc1F [Example 28, 1-{[3-(4-{[(3R,5S)-3,5-dimethyl-1-piperazinyl]methyl}-3-fluorophenyl)-2-pyridinyl]carbonyl}-N-[4-fluoro-3-(methyloxy)phenyl]-4-piperidinamine] | < 316 nM | < 3.16 µM | – | –
2 | C[C@@H]1CN(Cc2ccc(-c3cccnc3CN(C)C(=O)CCc3ccc(F)cc3)cc2)C[C@H](C)N1 [Example 3, N-{[3-(4{[(3R,5S)-3,5-Dimethyl-1-piperazinyl]methyl}phenyl)-2-pyridinyl]methyl}-3-(4-fluorophenyl)-N-methylpropanamide] | < 316 nM | < 3.16 µM | – | –
3 | C[C@H]1CN(Cc2ccc(-c3cccnc3C(=O)N3CCC(Nc4ccc(F)cc4)CC3)cc2)CCN1 [Example 8, N-(4-Fluorophenyl)-1-{[3-(4-{[(3S)-3-methyl-1-piperazinyl]methyl}phenyl)-2-pyridinyl]carbonyl}-4-piperidinamine] | – | – | < 316 nM | < 3.16 µM
4 | C[C@@H]1CN(Cc2ccc(-c3cccnc3C(=O)N3CCC(Nc4ccc(F)c(F)c4)CC3)cc2)C[C@H](C)N1 [Example 15, N-(3,4-difluorophenyl)-1-{[3-(4-{[(3R,5S)-3,5-dimethyl-1-piperazinyl]methyl}phenyl)-2-pyridinyl]carbonyl}-4-piperidinamine] | – | – | < 316 nM | < 3.16 µM
5 | C[C@@H]1CN(Cc2ccc(-c3cccnc3C(=O)N3CCC(Nc4cccc(F)c4)CC3)cc2)C[C@H](C)N1 [Example 10, 1-{[3-(4-{[(3R,5S)-3,5-dimethyl-1-piperazinyl]methyl}phenyl)-2-pyridinyl]carbonyl}-N-(3-fluorophenyl)-4-piperidinamine] | – | – | < 316 nM | < 3.16 µM
6 | C[C@@H]1CN(Cc2ccc(-c3cccnc3C(=O)N3CCC(Nc4ccc(F)cc4)CC3)cc2F)C[C@H](C)N1 [Example 9, 1-{[3-(4-{[(3R,5S)-3,5-dimethyl-1-piperazinyl]methyl}-3-fluorophenyl)-2-pyridinyl]carbonyl}-N-(4-fluorophenyl)-4-piperidinamine] | – | – | < 316 nM | < 3.16 µM
7 | C[C@@H]1CN(Cc2ccc(-c3cccnc3C(=O)N3CCC(Sc4ccc(Cl)cc4)CC3)cc2F)C[C@H](C)N1 [Example 13, (3R,5S)-1-({4-[2-({4-[(4-chlorophenyl)thio]-1-piperidinyl}carbonyl)-3-pyridinyl]-2-fluorophenyl}methyl)-3,5-dimethylpiperazine] | < 316 nM | < 3.16 µM | – | –
8 | C[C@@H]1CN(Cc2ccc(-c3cccnc3C(=O)N3CCC(Nc4ccccc4F)CC3)cc2)C[C@H](C)N1 [Example 31, 1-{[3-(4-{[(3R,5S)-3,5-dimethyl-1-piperazinyl]methyl}phenyl)-2-pyridinyl]carbonyl}-N-(2-fluorophenyl)-4-piperidinamine] | – | – | < 1000 nM | < 3.16 µM
9 | Cc1nc(CN(C)C(=O)CCc2ccc(F)cc2)c(-c2ccc(CN3C[C@@H](C)N[C@@H](C)C3)cc2)s1 [Example 6, N-{[5-(4-{[(3R,5S)-3,5-Dimethyl-1-piperazinyl]methyl}phenyl)-2-methyl-1,3-thiazol-4-yl]methyl}-3-(4-fluorophenyl)-N-methylpropanamide dihydrochloride] | < 316 nM | < 3.16 µM | – | –
10 | C[C@@H]1CN(Cc2ccc(-c3cccnc3C(=O)N3CCC(Nc4cccc(F)c4)CC3)cc2F)C[C@H](C)N1 [Example 11, 1-{[3-(4-{[(3R,5S)-3,5-dimethyl-1-piperazinyl]methyl}-3-fluorophenyl)-2-pyridinyl]carbonyl}-N-(3-fluorophenyl)-4-piperidinamine] | – | – | < 316 nM | < 3.16 µM
11 | C[C@@H]1CN(Cc2ccc(-c3cccnc3C(=O)N3CCC(Nc4cccc(C#N)c4)CC3)cc2)C[C@H](C)N1 [Example 29, 3-[(1-{[3-(4-{[(3R,5S)-3,5-dimethyl-1-piperazinyl]methyl}phenyl)-2-pyridinyl]carbonyl}-4-piperidinyl)amino]benzonitrile] | < 316 nM | < 3.16 µM | – | –
12 | C[C@@H]1CN(Cc2ccc(-c3cccnc3C(=O)N3CCC(Nc4ccc(F)cc4)C3)cc2)C[C@H](C)N1 (stereo partly drawn) [Example 16, 1-{[3-(4-{[(3R,5S)-3,5-dimethyl-1-piperazinyl]methyl}phenyl)-2-pyridinyl]carbonyl}-N-(4-fluorophenyl)-3-pyrrolidinamine] | < 316 nM | < 3.16 µM | – | –
13 | C[C@H]1CN(Cc2ccc(-c3cccnc3C(=O)N3CCC(Nc4cccc(F)c4)CC3)cc2)CCN1 [Example 14, N-(3-fluorophenyl)-1-{[3-(4-{[(3S)-3-methyl-1-piperazinyl]methyl}phenyl)-2-pyridinyl]carbonyl}-4-piperidinamine] | – | – | < 316 nM | < 3.16 µM
14 | C[C@@H]1CN(Cc2ccc(-n3ccnc3C(=O)N3CCC(Nc4cccc(F)c4)CC3)cc2)C[C@H](C)N1 [Example 21, 1-{[1-(4-{[(3R,5S)-3,5-Dimethyl-1-piperazinyl]methyl}phenyl)-1H-imidazol-2-yl]carbonyl}-N-(3-fluorophenyl)-4-piperidinamine] | – | – | < 316 nM | < 3.16 µM
15 | COc1cc(-c2cccnc2C(=O)N2CCC(Nc3ccc(F)cc3)CC2)ccc1CN1C[C@@H](C)N[C@@H](C)C1 [Example 17] | – | – | < 316 nM | < 3.16 µM
